PMC4076210, “Discovery of Novel AKT Inhibitors with Enhanced Anti-Tumor Effects in Combination with the MEK Inhibitor” (PLoS ONE, 2014)
Read-outs that look alike come from different tables or passages of the source.

Experiments:
Experiment in all cases: Kinase panel
Format in all cases: biochemical
[1] = target: T1, Aurora-A(h) (Homo sapiens, UniProt O14965)
T1 construct: purchased Millipore KinaseProfiler
T1 sequence (O14965 1-403): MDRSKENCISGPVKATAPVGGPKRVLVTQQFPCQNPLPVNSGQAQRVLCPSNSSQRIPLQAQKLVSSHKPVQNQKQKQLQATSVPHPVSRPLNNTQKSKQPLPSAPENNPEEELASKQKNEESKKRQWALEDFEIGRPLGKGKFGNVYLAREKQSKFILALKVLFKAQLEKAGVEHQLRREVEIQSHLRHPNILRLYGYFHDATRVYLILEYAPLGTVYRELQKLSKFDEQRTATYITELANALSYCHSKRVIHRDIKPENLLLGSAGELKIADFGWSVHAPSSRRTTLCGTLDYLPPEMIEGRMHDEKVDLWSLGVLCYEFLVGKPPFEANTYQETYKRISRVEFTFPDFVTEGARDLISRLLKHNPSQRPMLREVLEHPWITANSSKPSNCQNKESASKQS

[2] = target: T2, CDK9/cyclin T1(h) (Homo sapiens, UniProt P50750)
T2 construct: purchased Millipore KinaseProfiler
T2 sequence (P50750 whole entry): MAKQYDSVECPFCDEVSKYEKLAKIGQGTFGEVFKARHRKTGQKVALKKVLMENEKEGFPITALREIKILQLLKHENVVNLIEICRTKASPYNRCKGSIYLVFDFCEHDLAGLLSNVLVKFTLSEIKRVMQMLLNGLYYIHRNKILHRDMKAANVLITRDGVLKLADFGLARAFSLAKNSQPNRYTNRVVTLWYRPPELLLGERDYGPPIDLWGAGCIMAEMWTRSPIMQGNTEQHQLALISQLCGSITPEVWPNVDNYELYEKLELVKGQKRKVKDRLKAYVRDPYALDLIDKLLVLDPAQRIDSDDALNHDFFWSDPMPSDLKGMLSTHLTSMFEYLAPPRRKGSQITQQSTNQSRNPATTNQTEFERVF
T2 sequence (O60563 whole entry partner): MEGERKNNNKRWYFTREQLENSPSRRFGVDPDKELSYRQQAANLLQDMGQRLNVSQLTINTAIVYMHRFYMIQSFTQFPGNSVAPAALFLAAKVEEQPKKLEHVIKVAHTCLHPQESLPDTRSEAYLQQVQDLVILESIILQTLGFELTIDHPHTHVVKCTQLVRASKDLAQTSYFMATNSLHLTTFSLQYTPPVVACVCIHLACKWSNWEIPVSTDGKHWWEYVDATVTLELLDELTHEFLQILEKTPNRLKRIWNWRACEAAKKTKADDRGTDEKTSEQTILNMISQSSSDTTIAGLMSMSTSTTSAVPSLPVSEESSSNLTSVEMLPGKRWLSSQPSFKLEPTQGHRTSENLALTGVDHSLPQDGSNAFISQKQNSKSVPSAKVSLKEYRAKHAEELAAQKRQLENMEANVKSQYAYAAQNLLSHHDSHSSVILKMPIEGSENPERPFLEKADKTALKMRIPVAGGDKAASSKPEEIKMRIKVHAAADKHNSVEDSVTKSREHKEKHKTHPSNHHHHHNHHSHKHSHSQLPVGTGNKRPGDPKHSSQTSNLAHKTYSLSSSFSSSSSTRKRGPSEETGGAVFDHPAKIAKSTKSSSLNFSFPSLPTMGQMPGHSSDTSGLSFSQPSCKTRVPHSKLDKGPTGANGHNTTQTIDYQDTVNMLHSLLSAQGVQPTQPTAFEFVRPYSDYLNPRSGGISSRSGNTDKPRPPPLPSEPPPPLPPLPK

[3] = target: T3, Fyn(h) (Homo sapiens, UniProt P06241)
T3 construct: purchased Millipore KinaseProfiler
T3 sequence (P06241 whole entry): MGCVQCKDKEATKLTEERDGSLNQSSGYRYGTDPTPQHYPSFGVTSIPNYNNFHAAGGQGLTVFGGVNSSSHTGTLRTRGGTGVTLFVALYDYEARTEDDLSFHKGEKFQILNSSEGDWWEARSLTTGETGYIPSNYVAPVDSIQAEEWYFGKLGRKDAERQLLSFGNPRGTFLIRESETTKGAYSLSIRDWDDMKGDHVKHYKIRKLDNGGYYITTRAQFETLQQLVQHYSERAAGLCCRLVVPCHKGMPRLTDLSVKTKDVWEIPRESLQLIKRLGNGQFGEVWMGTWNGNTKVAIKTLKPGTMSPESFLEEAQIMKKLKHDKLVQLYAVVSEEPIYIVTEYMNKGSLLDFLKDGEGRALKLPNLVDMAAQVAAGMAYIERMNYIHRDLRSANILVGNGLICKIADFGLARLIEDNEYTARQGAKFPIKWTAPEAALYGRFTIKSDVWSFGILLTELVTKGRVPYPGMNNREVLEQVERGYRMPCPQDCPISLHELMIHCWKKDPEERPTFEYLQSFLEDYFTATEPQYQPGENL

[4] = target: T4, GSK3α(h) (Homo sapiens, UniProt P49840)
T4 construct: purchased Millipore KinaseProfiler
T4 sequence (P49840 whole entry): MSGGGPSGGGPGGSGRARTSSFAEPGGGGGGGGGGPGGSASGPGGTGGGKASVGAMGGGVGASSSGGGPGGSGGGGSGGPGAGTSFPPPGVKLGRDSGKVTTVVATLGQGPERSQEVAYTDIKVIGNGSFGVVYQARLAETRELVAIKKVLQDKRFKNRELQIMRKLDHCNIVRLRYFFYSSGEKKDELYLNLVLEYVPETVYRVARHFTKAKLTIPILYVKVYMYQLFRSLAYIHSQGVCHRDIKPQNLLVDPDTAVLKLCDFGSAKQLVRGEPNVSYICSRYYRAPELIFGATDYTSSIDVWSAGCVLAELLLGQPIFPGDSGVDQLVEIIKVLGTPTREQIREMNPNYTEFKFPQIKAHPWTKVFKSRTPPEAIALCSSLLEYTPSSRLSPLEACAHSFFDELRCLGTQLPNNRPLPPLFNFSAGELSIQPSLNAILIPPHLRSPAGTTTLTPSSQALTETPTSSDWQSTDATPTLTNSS

[5] = target: T5, JNK2α2(h) (Homo sapiens, UniProt P45984)
T5 construct: purchased Millipore KinaseProfiler
T5 sequence (P45984 whole entry): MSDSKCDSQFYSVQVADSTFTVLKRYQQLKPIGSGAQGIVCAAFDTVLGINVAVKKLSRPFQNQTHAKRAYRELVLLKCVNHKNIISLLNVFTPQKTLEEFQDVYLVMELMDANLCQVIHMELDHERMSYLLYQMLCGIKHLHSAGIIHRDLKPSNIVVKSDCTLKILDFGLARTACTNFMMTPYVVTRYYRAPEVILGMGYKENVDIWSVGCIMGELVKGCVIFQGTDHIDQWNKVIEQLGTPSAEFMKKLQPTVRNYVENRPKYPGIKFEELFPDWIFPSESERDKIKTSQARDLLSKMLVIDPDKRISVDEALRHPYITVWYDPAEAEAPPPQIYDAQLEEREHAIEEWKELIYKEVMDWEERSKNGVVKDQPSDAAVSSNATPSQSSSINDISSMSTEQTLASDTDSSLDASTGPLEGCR

[6] = target: T6, LKB1(h) (Homo sapiens, UniProt Q15831)
T6 construct: purchased Millipore KinaseProfiler
T6 sequence (Q15831 1-433): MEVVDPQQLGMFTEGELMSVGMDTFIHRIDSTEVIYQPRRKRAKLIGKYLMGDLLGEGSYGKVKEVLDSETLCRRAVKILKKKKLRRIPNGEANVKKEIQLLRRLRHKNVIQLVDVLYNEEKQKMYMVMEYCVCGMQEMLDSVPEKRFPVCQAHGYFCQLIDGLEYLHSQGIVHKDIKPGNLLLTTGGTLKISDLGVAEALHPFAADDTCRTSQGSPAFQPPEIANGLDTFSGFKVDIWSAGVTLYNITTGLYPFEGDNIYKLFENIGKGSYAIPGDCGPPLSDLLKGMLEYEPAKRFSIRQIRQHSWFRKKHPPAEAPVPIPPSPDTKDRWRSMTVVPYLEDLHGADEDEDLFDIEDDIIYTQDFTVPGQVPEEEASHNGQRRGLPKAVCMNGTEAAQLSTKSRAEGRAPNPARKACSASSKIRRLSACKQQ
T6 sequence (Q7RTN6 1-431 partner): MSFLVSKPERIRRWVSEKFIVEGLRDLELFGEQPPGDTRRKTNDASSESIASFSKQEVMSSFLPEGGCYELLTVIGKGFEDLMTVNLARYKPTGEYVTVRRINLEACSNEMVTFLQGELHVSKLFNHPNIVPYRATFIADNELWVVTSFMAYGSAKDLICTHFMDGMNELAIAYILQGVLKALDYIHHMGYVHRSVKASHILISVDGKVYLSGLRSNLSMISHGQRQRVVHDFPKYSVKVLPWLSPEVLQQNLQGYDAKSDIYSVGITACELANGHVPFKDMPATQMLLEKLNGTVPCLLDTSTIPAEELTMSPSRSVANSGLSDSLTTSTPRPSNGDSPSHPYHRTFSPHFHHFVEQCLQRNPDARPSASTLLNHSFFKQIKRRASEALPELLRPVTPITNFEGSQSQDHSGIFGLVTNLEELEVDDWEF
T6 sequence (Q9Y376 1-341 partner): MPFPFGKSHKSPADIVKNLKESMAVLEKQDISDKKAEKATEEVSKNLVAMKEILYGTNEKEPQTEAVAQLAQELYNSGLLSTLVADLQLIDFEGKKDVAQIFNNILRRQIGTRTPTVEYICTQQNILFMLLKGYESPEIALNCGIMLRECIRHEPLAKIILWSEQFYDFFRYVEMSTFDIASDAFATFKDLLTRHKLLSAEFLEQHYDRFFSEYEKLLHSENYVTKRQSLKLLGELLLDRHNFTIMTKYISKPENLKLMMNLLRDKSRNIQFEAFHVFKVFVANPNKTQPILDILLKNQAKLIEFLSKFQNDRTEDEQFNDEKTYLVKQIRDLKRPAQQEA

[7] = target: T7, PrKX(h) (Homo sapiens, UniProt P51817)
T7 construct: purchased Millipore KinaseProfiler
T7 sequence (P51817 1-358): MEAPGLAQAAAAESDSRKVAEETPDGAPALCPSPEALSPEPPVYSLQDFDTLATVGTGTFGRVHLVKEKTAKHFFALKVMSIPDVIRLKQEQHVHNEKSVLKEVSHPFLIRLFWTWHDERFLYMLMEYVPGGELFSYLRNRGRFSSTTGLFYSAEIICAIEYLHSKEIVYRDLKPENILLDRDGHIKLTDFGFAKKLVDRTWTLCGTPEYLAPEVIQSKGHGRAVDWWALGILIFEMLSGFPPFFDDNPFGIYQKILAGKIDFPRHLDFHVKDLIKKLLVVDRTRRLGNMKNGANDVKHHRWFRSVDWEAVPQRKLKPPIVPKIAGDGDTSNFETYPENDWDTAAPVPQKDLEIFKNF

[8] = target: T8, Tie2(Y897S)(h) (Homo sapiens, UniProt Q02763, Y897S)
T8 construct: purchased Millipore KinaseProfiler
T8 sequence (Q02763 23-1124 Y897S): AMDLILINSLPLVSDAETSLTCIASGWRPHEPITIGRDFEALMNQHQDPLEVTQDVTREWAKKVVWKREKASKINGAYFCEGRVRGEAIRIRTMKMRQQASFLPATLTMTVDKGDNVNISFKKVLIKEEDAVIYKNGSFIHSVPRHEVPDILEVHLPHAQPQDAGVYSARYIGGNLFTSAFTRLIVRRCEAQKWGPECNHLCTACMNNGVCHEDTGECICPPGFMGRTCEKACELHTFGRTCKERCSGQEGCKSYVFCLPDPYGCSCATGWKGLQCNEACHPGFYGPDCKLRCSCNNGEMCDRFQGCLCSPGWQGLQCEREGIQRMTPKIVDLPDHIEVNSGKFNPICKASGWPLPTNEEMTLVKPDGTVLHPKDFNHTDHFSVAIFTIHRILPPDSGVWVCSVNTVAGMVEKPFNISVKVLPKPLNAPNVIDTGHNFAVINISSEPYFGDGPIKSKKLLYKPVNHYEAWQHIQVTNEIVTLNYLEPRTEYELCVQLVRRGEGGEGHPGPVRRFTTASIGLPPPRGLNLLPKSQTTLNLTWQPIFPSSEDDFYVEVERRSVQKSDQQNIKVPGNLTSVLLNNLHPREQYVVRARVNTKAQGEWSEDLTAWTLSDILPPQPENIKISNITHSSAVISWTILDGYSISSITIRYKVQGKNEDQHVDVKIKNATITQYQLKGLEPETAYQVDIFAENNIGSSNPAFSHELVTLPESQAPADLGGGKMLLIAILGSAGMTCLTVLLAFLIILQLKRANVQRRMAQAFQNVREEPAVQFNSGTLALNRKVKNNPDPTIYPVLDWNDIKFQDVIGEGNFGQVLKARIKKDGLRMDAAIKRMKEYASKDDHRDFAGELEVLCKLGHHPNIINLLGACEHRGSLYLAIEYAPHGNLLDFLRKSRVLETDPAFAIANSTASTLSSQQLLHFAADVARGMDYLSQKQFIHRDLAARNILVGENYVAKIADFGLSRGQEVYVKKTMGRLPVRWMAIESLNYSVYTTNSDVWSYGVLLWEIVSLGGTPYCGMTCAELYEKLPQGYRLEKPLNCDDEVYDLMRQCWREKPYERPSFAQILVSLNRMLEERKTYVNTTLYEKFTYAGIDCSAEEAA

[9] = target: T9, Yes(h) (Homo sapiens, UniProt P07947)
T9 construct: purchased Millipore KinaseProfiler
T9 sequence (P07947 whole entry): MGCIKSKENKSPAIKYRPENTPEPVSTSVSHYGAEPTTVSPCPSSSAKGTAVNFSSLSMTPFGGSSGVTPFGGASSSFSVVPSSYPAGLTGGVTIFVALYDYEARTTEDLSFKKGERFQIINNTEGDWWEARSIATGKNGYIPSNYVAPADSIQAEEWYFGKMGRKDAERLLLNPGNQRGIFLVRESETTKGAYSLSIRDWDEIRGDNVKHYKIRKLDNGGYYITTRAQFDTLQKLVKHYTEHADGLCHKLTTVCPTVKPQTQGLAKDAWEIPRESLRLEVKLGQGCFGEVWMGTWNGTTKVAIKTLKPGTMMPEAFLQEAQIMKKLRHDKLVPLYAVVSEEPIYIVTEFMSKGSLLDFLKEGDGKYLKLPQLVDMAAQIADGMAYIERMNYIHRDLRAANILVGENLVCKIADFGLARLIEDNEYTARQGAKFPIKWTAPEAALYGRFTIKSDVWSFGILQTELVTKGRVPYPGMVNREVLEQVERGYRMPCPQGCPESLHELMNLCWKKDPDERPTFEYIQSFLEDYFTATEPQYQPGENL

Cn1ncc(Cl)c1-c1cc(C(=O)N[C@H](CN)Cc2cccc(F)c2)sc1Cl [GSK2110183]
inhibition at 0.5 µM [1]: 0% | inhibition at 10 µM [1]: 23% | inhibition at 0.5 µM [2]: 0% | inhibition at 10 µM [2]: 48% | inhibition at 0.5 µM [3]: -3% | inhibition at 10 µM [3]: 12% | inhibition at 0.5 µM [4]: -2% | inhibition at 10 µM [4]: -1% | inhibition at 0.5 µM [5]: -15% | inhibition at 10 µM [5]: -13% | inhibition at 0.5 µM [6]: -2% | inhibition at 10 µM [6]: 40% | inhibition at 0.5 µM [7]: 70% | inhibition at 10 µM [7]: 96% | inhibition at 0.5 µM [8]: -5% | inhibition at 10 µM [8]: -4% | inhibition at 0.5 µM [9]: 2% | inhibition at 10 µM [9]: 38%

Cn1ncc(Cl)c1-c1cc(C(=O)N[C@H](CN)Cc2ccc(F)c(F)c2)oc1Cl [GSK2141795]
inhibition at 0.5 µM ([1]; 0.5 µM, read-out: % Inhibition): -10% | inhibition at 10 µM ([1]; 10 µM, read-out: % Inhibition): 31% | inhibition at 0.5 µM ([2]; 0.5 µM, read-out: % Inhibition): 15% | inhibition at 10 µM ([2]; 10 µM, read-out: % Inhibition): 72% | inhibition at 0.5 µM ([3]; 0.5 µM, read-out: % Inhibition): -8% | inhibition at 10 µM ([3]; 10 µM, read-out: % Inhibition): 10% | inhibition at 0.5 µM ([4]; 0.5 µM, read-out: % Inhibition): -26% | inhibition at 10 µM ([4]; 10 µM, read-out: % Inhibition): -19% | inhibition at 0.5 µM ([5]; 0.5 µM, read-out: % Inhibition): -15% | inhibition at 10 µM ([5]; 10 µM, read-out: % Inhibition): -23% | inhibition at 0.5 µM ([6]; 0.5 µM, read-out: % Inhibition): -18% | inhibition at 10 µM ([6]; 10 µM, read-out: % Inhibition): 18% | inhibition at 0.5 µM ([7]; 0.5 µM, read-out: % Inhibition): 91% | inhibition at 10 µM ([7]; 10 µM, read-out: % Inhibition): 98% | inhibition at 0.5 µM ([8]; 0.5 µM, read-out: % Inhibition): -4% | inhibition at 10 µM ([8]; 10 µM, read-out: % Inhibition): 2% | inhibition at 0.5 µM ([9]; 0.5 µM, read-out: % Inhibition): -4% | inhibition at 10 µM ([9]; 10 µM, read-out: % Inhibition): 83%
